The results in this text go back to US20220162191A1, “SMALL MOLECULE MODULATORS OF IL-17” (LEO PHARMA A/S, priority 2019, published 2022).

This test concerns the target T1, human IL-17AA (Homo sapiens, UniProt Q16552).
T1 construct: host or cells: HEK (human embryonic kidney) cells
T1 sequence (Q16552 24-155) 1: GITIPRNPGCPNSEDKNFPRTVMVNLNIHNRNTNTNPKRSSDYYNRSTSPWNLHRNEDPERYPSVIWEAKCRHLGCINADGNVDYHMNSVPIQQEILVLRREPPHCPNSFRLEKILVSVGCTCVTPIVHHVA
T1 sequence (Q16552 24-155) 2: T1 sequence (Q16552 24-155) 1
As to the kind of experiment: IL-8 release assay in human epithelial keratinocytes adult (HEKa). The format is cell-based. To be noted: 3 ng/ml human IL-17AA + 10 ng/ml human TNFalpha, 68-72 h, IL-8 by HTRF, read-out: Rel EC50 L-8 release assay. In outline:
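IL-8 secretion, quantified by HTRF (665/620 nm) as percent of controls, served as the readout after 68–72 h culture of HEKa cells with compound plus IL-17AA (3 ng/ml final) and TNF-alpha (10 ng/ml final). Four-parameter logistic curves gave relative IC50 and Emax.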
(In TR-FRET formats the signal depends on donor and acceptor labels being close together.)
A word on the EC50: it is the concentration that produces a half-maximal response. As for `CC(c1cccc(-c2ccc(=O)n(C(C)C)c2)c1)[C@H](NC(=O)c1ccnn1C)C(=O)Nc1ccc(-c2cncn2C)cc1` (stereo partly drawn) [Example 56, N-[(1S)-2-[3-(1-isopropyl-6-oxo-3-pyridyl)phenyl]-1-[[4-(3-methylimidazol-4-yl)phenyl]carbamoyl]propyl]-2-methyl-pyrazole-3-carboxamide], the EC50 was above 1000 nM.

Consider `Cc1n[nH]c(C)c1-c1ccc(NC(=O)[C@H](Cc2cc(-c3cccc(C(C)(C)O)c3)ccc2Cl)NC(=O)c2ccnn2C)cc1` [Example 58, N-[(1S)-1-[[2-chloro-5-[3-(1-hydroxy-1-methyl-ethyl)phenyl]phenyl]methyl]-2-[4-(3,5-dimethyl-1H-pyrazol-4-yl)anilino]-2-oxo-ethyl]-2-methyl-pyrazole-3-carboxamide], for which the concentration giving a half-maximal response (EC50) was below 100 nM.

On to `Cc1n[nH]c(C)c1-c1ccc(NC(=O)[C@H](Cc2cc(-c3cccc(C(C)(C)N)c3)ccc2Cl)NC(=O)c2ccnn2C)cc1` [Example 59, N-[(1S)-1-[[5-[3-(1-amino-1-methyl-ethyl)phenyl]-2-chloro-phenyl]methyl]-2-[4-(3,5-dimethyl-1H-pyrazol-4-yl)anilino]-2-oxo-ethyl]-2-methyl-pyrazole-3-carboxamide], for which the concentration for a half-maximal effect (EC50) was below 100 nM.

Turning to `Cc1n[nH]c(C)c1-c1ccc(NC(=O)[C@H](Cc2cc(-c3cccc(CN(C)C)c3)ccc2Cl)NC(=O)c2ccnn2C)cc1` [Example 60, N-[(1S)-1-[[2-chloro-5-[3-[(dimethylamino)methyl]phenyl]phenyl]methyl]-2-[4-(3,5-dimethyl-1H-pyrazol-4-yl)anilino]-2-oxo-ethyl]-2-methyl-pyrazole-3-carboxamide], the 50% effective concentration (EC50) was below 100 nM.

Turning to `Cc1n[nH]c(C)c1-c1ccc(NC(=O)[C@H](Cc2cc(-c3cccc(CN)c3)ccc2Cl)NC(=O)c2ccnn2C)cc1` [Example 61, N-[(1S)-1-[[5-[3-(aminomethyl)phenyl]-2-chloro-phenyl]methyl]-2-[4-(3,5-dimethyl-1H-pyrazol-4-yl)anilino]-2-oxo-ethyl]-2-methyl-pyrazole-3-carboxamide], the concentration giving a half-maximal response (EC50) lay within 100 to 1000 nM.

On to `CC(C)n1cc(-c2ccc(Cl)c(CC(NC(=O)c3ccnn3C)C(=O)Nc3ccc(-c4nncn4C)cc3)c2)ccc1=O` (stereo not drawn) [Example 62, N-[1-[[2-chloro-5-(1-isopropyl-6-oxo-3-pyridyl)phenyl]methyl]-2-[4-(4-methyl-1,2,4-triazol-3-yl)anilino]-2-oxo-ethyl]-2-methyl-pyrazole-3-carboxamide], for which the 50% effective concentration (EC50) is above 1000 nM.

In the case of `Cc1nocc1C(=O)NC(Cc1cc(-c2ccc(=O)n(C3CC3)c2)ccc1Cl)C(=O)Nc1ccc(-c2nncn2C)cc1` (stereo not drawn) [Example 63, N-[1-[[2-chloro-5-(1-cyclopropyl-6-oxo-3-pyridyl)phenyl]methyl]-2-[4-(4-methyl-1,2,4-triazol-3-yl)anilino]-2-oxo-ethyl]-3-methyl-isoxazole-4-carboxamide], the EC50 was above 1000 nM.

As to `Cn1cnnc1-c1ccc(NC(=O)C(Cc2cc(-c3ccnc(CC(C)(C)O)c3)ccc2Cl)NC(=O)c2ccnn2C)cc1` (stereo not drawn) [Example 64, N-[1-[[2-chloro-5-[2-(2-hydroxy-2-methyl-propyl)-4-pyridyl]phenyl]methyl]-2-[4-(4-methyl-1,2,4-triazol-3-yl)anilino]-2-oxo-ethyl]-2-methyl-pyrazole-3-carboxamide], the EC50 was above 1000 nM.

As to `CC(C)n1cc(-c2ccc(Cl)c(CC(NC(=O)c3ccnn3C)C(=O)Nc3ccc(-c4cnnn4C)cc3)c2)ccc1=O` (stereo not drawn) [Example 65, N-[1-[[2-chloro-5-(1-isopropyl-6-oxo-3-pyridyl)phenyl]methyl]-2-[4-(3-methyltriazol-4-yl)anilino]-2-oxo-ethyl]-2-methyl-pyrazole-3-carboxamide], the EC50 is above 1000 nM.

Turning to `CC(C)n1cc(-c2ccc(Cl)c(CC(NC(=O)c3ccnn3C)C(=O)Nc3ccc(-c4nn[nH]n4)cc3)c2)ccc1=O` (stereo not drawn) [Example 66, N-[1-[[2-chloro-5-(1-isopropyl-6-oxo-3-pyridyl)phenyl]methyl]-2-oxo-2-[4-(2H-tetrazol-5-yl)anilino]ethyl]-2-methyl-pyrazole-3-carboxamide], the EC50 is above 1000 nM.

As to `Cc1nccn1-c1ccc(NC(=O)C(Cc2cc(-c3ccc(=O)n(C(C)C)c3)ccc2Cl)NC(=O)OC(C)(C)C)cc1` (stereo not drawn) [Example 67, tert-butyl N-[1-[[2-chloro-5-(1-isopropyl-6-oxo-3-pyridyl)phenyl]methyl]-2-[4-(2-methylimidazol-1-yl)anilino]-2-oxo-ethyl]carbamate], the concentration for a half-maximal effect (EC50) was in the range of 100 to 1000 nM.

`Cc1nccn1-c1ccc(NC(=O)C(Cc2cc(-c3ccc(=O)n(C(C)C)c3)ccc2Cl)NC(=O)c2ccnn2C)cc1` (stereo not drawn) [Example 68, N-[1-[[2-chloro-5-(1-isopropyl-6-oxo-3-pyridyl)phenyl]methyl]-2-[4-(2-methylimidazol-1-yl)anilino]-2-oxo-ethyl]-2-methyl-pyrazole-3-carboxamide]: the concentration giving a half-maximal response (EC50) was above 1000 nM.

Turning to `CC(C)n1cc(-c2ccc(Cl)c(CC(NC(=O)c3ccnn3C)C(=O)Nc3ccc(-c4nncn4C)c(O)c3)c2)ccc1=O` (stereo not drawn) [Example 69, N-[1-[[2-chloro-5-(1-isopropyl-6-oxo-3-pyridyl)phenyl]methyl]-2-[3-hydroxy-4-(4-methyl-1,2,4-triazol-3-yl)anilino]-2-oxo-ethyl]-2-methyl-pyrazole-3-carboxamide], the EC50 is 100 to 1000 nM.

In the case of `COc1cc(NC(=O)[C@H](Cc2cc(-c3ccc(=O)n(C(C)C)c3)ccc2Cl)NC(=O)c2conc2C)ccc1-c1ccnn1C` [Example 70, N-[(1S)-1-[[2-chloro-5-(1-isopropyl-6-oxo-3-pyridyl)phenyl]methyl]-2-[3-methoxy-4-(2-methylpyrazol-3-yl)anilino]-2-oxo-ethyl]-3-methyl-isoxazole-4-carboxamide], the EC50 was above 1000 nM.

In the case of `Cc1nocc1C(=O)N[C@@H](Cc1cc(-c2ccc(=O)n(C(C)C)c2)ccc1Cl)C(=O)Nc1ccc(-c2ccnn2C)c(O)c1` [Example 71, N-[(1S)-1-[[2-chloro-5-(1-isopropyl-6-oxo-3-pyridyl)phenyl]methyl]-2-[3-hydroxy-4-(2-methylpyrazol-3-yl)anilino]-2-oxo-ethyl]-3-methyl-isoxazole-4-carboxamide], the EC50 is below 100 nM.

For `CC(C)n1cc(-c2ccc(Cl)c(CC(NC(=O)c3ccnn3C)C(=O)Nc3ccc(-c4nncn4C4CC4)cc3)c2)ccc1=O` (stereo not drawn) [Example 72, N-[1-[[2-chloro-5-(1-isopropyl-6-oxo-3-pyridyl)phenyl]methyl]-2-[4-(4-cyclopropyl-1,2,4-triazol-3-yl)anilino]-2-oxo-ethyl]-2-methyl-pyrazole-3-carboxamide], the EC50 is above 1000 nM.

For `Cc1cc(-c2ccc(Cl)c(CC(NC(=O)c3ccnn3C)C(=O)Nc3ccc(-c4nncn4C4CC4)cc3)c2)ccn1` (stereo not drawn) [Example 73, N-[1-[[2-chloro-5-(2-methyl-4-pyridyl)phenyl]methyl]-2-[4-(4-cyclopropyl-1,2,4-triazol-3-yl)anilino]-2-oxo-ethyl]-2-methyl-pyrazole-3-carboxamide], the 50% effective concentration (EC50) was above 1000 nM.

With `CC(C)c1cc(-c2ccc(Cl)c(CC(NC(=O)c3ccnn3C)C(=O)Nc3ccc(-c4nncn4C4CC4)cc3)c2)ccn1` (stereo not drawn) [Example 74, N-[1-[[2-chloro-5-(2-isopropyl-4-pyridyl)phenyl]methyl]-2-[4-(4-cyclopropyl-1,2,4-triazol-3-yl)anilino]-2-oxo-ethyl]-2-methyl-pyrazole-3-carboxamide], the EC50 is 100 to 1000 nM.

On to `CC(C)c1cc(-c2ccc(Cl)c(CC(NC(=O)c3ccnn3C)C(=O)Nc3ccc(-c4nncn4C)cc3)c2)ccn1` (stereo not drawn) [Example 75, N-[1-[[2-chloro-5-(2-isopropyl-4-pyridyl)phenyl]methyl]-2-[4-(4-methyl-1,2,4-triazol-3-yl)anilino]-2-oxo-ethyl]-2-methyl-pyrazole-3-carboxamide], for which the EC50 is above 1000 nM.

For the compound `CC(C)n1cc(-c2ccc(Cl)c(CC(NC(=O)OC(C)(C)C)C(=O)Nc3ccc(-c4cnn[nH]4)cc3)c2)ccc1=O` (stereo not drawn) [Example 76, tert-butyl N-[1-[[2-chloro-5-(1-isopropyl-6-oxo-3-pyridyl)phenyl]methyl]-2-oxo-2-[4-(1H-triazol-5-yl)anilino]ethyl]carbamate], the EC50 is above 1000 nM.

`Cc1nncn1-c1ccc(NC(=O)C(Cc2cc(-c3ccc(=O)n(C(C)C)c3)ccc2Cl)NC(=O)c2ccnn2C)cc1` (stereo not drawn) [Example 77, N-[1-[[2-chloro-5-(1-isopropyl-6-oxo-3-pyridyl)phenyl]methyl]-2-[4-(3-methyl-1,2,4-triazol-4-yl)anilino]-2-oxo-ethyl]-2-methyl-pyrazole-3-carboxamide]: the concentration for a half-maximal effect (EC50) was above 1000 nM.

For `Cc1nocc1-c1ccc(NC(=O)C(Cc2cc(-c3ccc(=O)n(C(C)C)c3)ccc2Cl)NC(=O)c2ccnn2C)cc1` (stereo not drawn) [Example 78, N-[1-[[2-chloro-5-(1-isopropyl-6-oxo-3-pyridyl)phenyl]methyl]-2-[4-(3-methylisoxazol-4-yl)anilino]-2-oxo-ethyl]-2-methyl-pyrazole-3-carboxamide], the 50% effective concentration (EC50) lay within 100 to 1000 nM.

For the compound `CC(C)n1cc(-c2ccc(Cl)c(CC(NC(=O)c3ccnn3C)C(=O)Nc3ccc(-c4cncn4C)cc3)c2)ccc1=O` (stereo not drawn) [Example 79, N-[1-[[2-chloro-5-(1-isopropyl-6-oxo-3-pyridyl)phenyl]methyl]-2-[4-(3-methylimidazol-4-yl)anilino]-2-oxo-ethyl]-2-methyl-pyrazole-3-carboxamide], the concentration giving a half-maximal response (EC50) was 100 to 1000 nM.

Turning to `Cc1nocc1C(=O)NC(Cc1cc(-c2ccc(=O)n(C(C)C)c2)ccc1Cl)C(=O)Nc1ccc(-c2cn[nH]c2)cc1` (stereo not drawn) [Example 80, N-[1-[[2-chloro-5-(1-isopropyl-6-oxo-3-pyridyl)phenyl]methyl]-2-oxo-2-[4-(1H-pyrazol-4-yl)anilino]ethyl]-3-methyl-isoxazole-4-carboxamide], the concentration for a half-maximal effect (EC50) is 100 to 1000 nM.
